The subject of one data set is BT474. The data set can be described thus: Cytotoxicity assay (SRB), BT474. It is filed as cell-based. Particulars: Homo sapiens, BT-474, 144 h, BT474 cells, SRB, 6 days; read-out: In Vitro Cellular Activity IC50 BT474. The essentials:
(§1)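 Cells were seeded overnight in RPMI 1640 with 5% FBS at 37 °C, 7% CO2 (12000/well BT474, 4000 HCT-116, 6000 LoVo, 6000 MCF-7), then exposed to compound dilutions for 3 days (6 days for BT474). Survival versus untreated controls was measured by TCA fixation and SRB staining at 540 nm.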

A further data set deals with HCT-116. Kind of data set: Cytotoxicity assay (SRB), HCT-116. The format is cell-based. Conditions: Homo sapiens, HCT-116, 72 h, HCT116 cells, SRB, three days; read-out: In Vitro Cellular Activity IC50 HCT116. The essentials:
as §1

A further data set has as its system LoVo. The data set can be described thus: Cytotoxicity assay (SRB), LoVo. It is filed as cell-based. Particulars: Homo sapiens, LoVo, 72 h, LoVo cells, SRB, three days; read-out: In Vitro Cellular Activity IC50 LOVO. The method, boiled down:
as §1

In the next data set the test system is MCF-7. Kind of data set: Cytotoxicity assay (SRB), MCF-7. It is filed as cell-based. Conditions: Homo sapiens, MCF7, 72 h, MCF-7 cells, SRB, three days; read-out: In Vitro Cellular Activity IC50 MCF-7. The method, boiled down:
as §1

As for `O=C1NC(=O)c2ccc(-c3ccsc3)cc2/C1=C/Nc1ccc(CN2CCCCC2)cc1` (hydrate or solvate) [Example 104, (4Z)-4-({[4-(Piperidin-1-ylmethyl)phenyl]amino}methylene)-6-thien-3-ylisoquinoline-1,3(2H,4H)-dione], the melting point lay in the range of 166 to 167 °C.

On to `COc1ccc(-c2ccc3c(c2)/C(=C/Nc2ccc(N4CCN(C)CC4)cc2)C(=O)NC3=O)cc1` (hydrate or solvate) [Example 114, (4Z)-6-(4-methoxyphenyl)-4-({[4-(4-methylpiperazin-1-yl)phenyl]amino}methylene)-isoquinoline-1,3(2H,4H)-dione], for which the melting point lay within 224 to 225 °C.

`CN1CCN(c2ccc(N/C=C3\C(=O)NC(=O)c4ccc(-c5ccc(C=O)cc5)cc43)cc2)CC1` (hydrate or solvate) [Example 115, 4-[(4Z)-4-({[4-(4-Methylpiperazin-1-yl)phenyl]amino}methylene)-1,3-dioxo-1,2,3,4-tetra-hydroisoquinolin-6-yl]benzaldehyde] gave a melting point of 152 to 153 °C.

On to `COc1ccc(-c2ccc3c(c2)/C(=C/Nc2ccc(CN4CCCCC4)cc2)C(=O)NC3=O)cc1` (hydrate or solvate) [Example 116, (4Z)-6-(4-Methoxyphenyl)-4-({[4-(piperidin-1-ylmethyl)phenyl]amino}methylene)-isoquinoline-1,3(2H,4H)-dione], for which the melting point was 168 to 169 °C.

In the case of `COc1cccc(-c2ccc3c(c2)/C(=C/Nc2ccc(CN4CCCCC4)cc2)C(=O)NC3=O)c1` (hydrate or solvate) [Example 117, (4Z)-6-(3-Methoxyphenyl)-4-({[4-(piperidin-1-ylmethyl)phenyl]amino}methylene)-isoquinoline-1,3(2H,4H)-dione], the melting point fell in the range of 169 to 170 °C.

Take `CN1CCN(c2ccc(N/C=C3\C(=O)NC(=O)c4ccc(-c5ccc(C=O)o5)cc43)cc2)CC1` (hydrate or solvate) [Example 124, 5-[(4Z)-4-({[4-(4-Methylpiperazin-1-yl)phenyl]amino}methylene)-1,3-dioxo-1,2,3,4-tetrahydroisoquinolin-6-yl]-2-furaldehyde]: the melting point is 218 to 220 °C.

`O=C1NCc2ccccc2/C1=C/Nc1ccc(-c2c[nH]cn2)cc1` [Example 3, (4Z)-4-({[4-(1H-Imidazol-4-yl)phenyl]amino}methylene)-1,4-dihydro-3(2H)-isoquinolinone]: the melting point was 151 to 152 °C (dec.).

Turning to `O=C1NC(=O)c2ccccc2/C1=C/Nc1ccc2cn[nH]c2c1` [Example 7, (4Z)-4-[(1H-Indazol-6-ylamino)methylene]isoquinoline-1,3(2H,4H)-dione], the melting point was over 300 °C.

As for `O=C1NC(=O)c2ccc(Br)cc2/C1=C/NCc1cccnc1` [Example 30, (4Z)-6-Bromo-4-{[(pyridin-3-ylmethyl)amino]methylene}isoquinoline-1,3(2H,4H)-dione], the melting point lay within 299 to 300 °C.

With `O=C1NC(=O)c2ccc([N+](=O)[O-])cc2/C1=C/Nc1ccc(CN2CCCCC2)cc1` [Example 42, (4Z)-6-Nitro-4-{[(4-piperidin-1-ylmethyl)phenyl]amino}methyleneisoquinoline-1,3(2H,4H)-dione], the melting point was 225 to 235 °C (dec.).

In turn, `O=C1NC(=O)c2ccc(Br)cc2/C1=C/NCCc1c[nH]c2ccccc12` [Example 43, (4Z)-6-Bromo-4-({[2-(1H-indol-3-yl)ethyl]amino}methylene)isoquinoline-1,3(2H,4H)-dione] returned a melting point of 278 to 280 °C. In the data set on BT474, the IC50 worked out at 41 µM. Also, the IC50 with HCT-116 stood at 26 µM. For the same molecule, the IC50 with LoVo was over 50 µM. The IC50 in the data set on MCF-7 was over 50 µM.

For the molecule `CN1CCN(c2ccc(N/C=C3\C(=O)NC(=O)c4ccc(C(=O)O)cc43)cc2)CC1` [Example 51, (4Z)-4-({[4-(4-Methylpiperazin-1-yl)phenyl]amino}methylene)-1,3-dioxo-1,2,3,4-tetrahydroisoquinoline-6-carboxylic acid], the melting point lay within 278 to 280 °C.

Turning to `O=C1NC(=O)c2ccc(Br)cc2/C1=C/NCc1ccc(Cl)cc1` [Example 53, (4Z)-6-Bromo-4-{[(4-chlorobenzyl)amino)methylene}isoquinoline-1,3(2H,4H)-dione], the melting point lay in the range of 234 to 235 °C. Moreover, the IC50 with BT474 worked out at 37 µM. For the same molecule, the IC50 in the data set on HCT-116 was determined as 32 µM. For the same molecule, the IC50 in the data set on LoVo was over 50 µM. In addition, the half-inhibitory concentration (IC50) in the data set with MCF-7 is over 50 µM.

`COc1ccc(CN/C=C2\C(=O)NC(=O)c3ccc(Br)cc32)cc1OC(C)=O` [Example 57, 5-({[(Z)-(6-Bromo-1,3-dioxo-2,3-dihydroisoquinolin-4(1H)-ylidene)methyl]amino}methyl)-2-methoxyphenyl acetate] returned a melting point of 226 to 227 °C. For the same molecule, the half-maximal inhibitory concentration (IC50) with BT474 stood at 3.7 µM. Besides, the IC50 with HCT-116 amounted to 9.6 µM. For the same molecule, the half-inhibitory concentration (IC50) in the data set with LoVo was 5.2 µM. Also, in the data set with MCF-7, the 50% inhibitory concentration (IC50) is over 50 µM.

The molecule `O=C1NC(=O)c2ccc(-c3ccc(Oc4ccccc4)cc3)cc2/C1=C/Nc1ccc(CN2CCCCC2)cc1` [Example 101] registered a melting point of 132 to 133 °C. Besides, in the data set on BT474, the IC50 was 2.9 µM. Moreover, the IC50 in the data set with HCT-116 came to 1.2 µM. The half-maximal inhibitory concentration (IC50) in the data set on LoVo was 4.3 µM. Besides, the concentration for half-maximal inhibition (IC50) in the data set on MCF-7 came out at 3.2 µM.

On to `O=C1NC(=O)c2ccc(Br)cc2/C1=C/NCc1ccc2c(c1)OCO2` [Example 109, (4Z)-4-{[(1,3-Benzodioxol-5-ylmethyl)amino]methylene}-6-bromoisoquinoline-1,3(2H,4H)-dione], for which the melting point lay in the range of 227 to 228 °C. For the same molecule, the concentration for half-maximal inhibition (IC50) with BT474 was 34.8 µM. In addition, the 50% inhibitory concentration (IC50) with HCT-116 was found to be 16.8 µM. For the same molecule, the IC50 in the data set with LoVo is over 50 µM. For the same molecule, in the data set with MCF-7, the half-inhibitory concentration (IC50) is over 50 µM.

In the case of `N#Cc1ccc2c(c1)/C(=C/Nc1ccc(CN3CCCCC3)cc1)C(=O)NC2=O` [Example 110, (4Z)-1,3-Dioxo-4-({[4-(piperidin-1-ylmethyl)phenyl]amino}methylene)1,2,3,4-tetrahydroisoquinoline-6-carbonitrile], the melting point is 254 to 256 °C (dec.). The IC50 in the data set with BT474 came to 3.5 µM. For the same molecule, the concentration for half-maximal inhibition (IC50) in the data set on HCT-116 is 1.6 µM. For the same molecule, in the data set on LoVo, the IC50 was found to be 2.5 µM. Besides, in the data set with MCF-7, the concentration for half-maximal inhibition (IC50) was found to be 5.8 µM.

Turning to `COC[C@H]1CCCN1c1ccc2c(c1)/C(=C/Nc1ccc(CN3CCCCC3)cc1)C(=O)NC2=O` [Example 121, (4Z)-6-[(2R)-2-(Methoxymethyl)pyrrolidin-1-yl]-4-({[4-(piperidin-1-ylmethyl)phenyl]amino}methylene)isoquinoline-1,3(2H,4H)-dione], the melting point is 135 to 136 °C. In the data set on BT474, the IC50 is 7.7 µM. Also, the IC50 in the data set on HCT-116 was 5.5 µM. In addition, in the data set with LoVo, the IC50 was 3.8 µM. Besides, the half-inhibitory concentration (IC50) with MCF-7 is 4.6 µM.

Turning to `COc1ccc(CN/C=C2\C(=O)NC(=O)c3cc(Br)ccc32)cc1O` [Example 135, (4Z)-7-Bromo-4-{[(3-hydroxy-4-methoxybenzyl)amino]methylene}isoquinoline-1,3(2H,4H)-dione], the melting point is 297 to 298 °C. In the data set on BT474, the half-maximal inhibitory concentration (IC50) is over 50 µM. Also, the IC50 with HCT-116 came to 31 µM. For the same molecule, in the data set with LoVo, the half-maximal inhibitory concentration (IC50) is over 50 µM. The concentration for half-maximal inhibition (IC50) with MCF-7 was over 50 µM.

For the origin of these results see patent publication US7713994B2 (Wyeth LLC, priority 2005, dated 2010).
